Experimental data as given in patent US20240148821A1, “PHARMACEUTICAL USE OF CYCLIC PEPTIDE COMPOUND” (CHUGAI SEIYAKU KABUSHIKI KAISHA, priority 2021, published 2024).
Numbered stars: 1 amine (or outer) side, 2 acyl side, 3 side chain; on linkers, the order of the positions; unused ones are H or OH. Bridge positions count the residues as written; N and C are the ends. Square brackets hold non-standard residues; d marks the D form. Peptide text beside a SMILES is read from it. * marks the point of attachment. hPhe(3-Cl-4-CF3) = N[C@@H](CCc1ccc(C(F)(F)F)c(Cl)c1)C(=O)O; X21 = O=C([C@H](CCc1ccc(OC(F)(F)F)c(F)c1)N[*:1])[*:2]; NEtPhe(4-CF3) = CCN[C@@H](Cc1ccc(C(F)(F)F)cc1)C(=O)O; Pro(trans-4-Ph) = O=C(O)[C@@H]1C[C@@H](c2ccccc2)CN1; NEtPhe(4-Me) = CCN[C@@H](Cc1ccc(C)cc1)C(=O)O; NMePhe(4-Cl) = CN[C@@H](Cc1ccc(Cl)cc1)C(=O)O; hPhe(4-Cl) = N[C@@H](CCc1ccc(Cl)cc1)C(=O)O; NMedβ3hAla = C[C@H](CC(=O)[*:2])N(C)[*:1]; NMeAla(cPent) = CN[C@@H](CC1CCCC1)C(=O)O; NMeGly(cPent) = CN[C@H](C(=O)O)C1CCCC1; NMeCha = CN[C@@H](CC1CCCCC1)C(=O)O; cisHyp = O=C(O)[C@@H]1C[C@H](O)CN1; hhPhe = N[C@@H](CCCc1ccccc1)C(=O)O; NMehLeu = CN[C@@H](CCC(C)C)C(=O)O; Hyp = O=C(O)[C@@H]1C[C@@H](O)CN1; NMeChg = CN[C@H](C(=O)O)C1CCCCC1; NMeI = CC[C@H](C)[C@H](NC)C(=O)O; X12 = O=C(CN(CC1COC1)[*:1])[*:2]; d(β3hL) = CC(C)C[C@@H](N)CC(=O)O; dNMeF = CN[C@H](Cc1ccccc1)C(=O)O; NMeD = CN[C@@H](CC(=O)O)C(=O)O; NMeL = CN[C@@H](CC(C)C)C(=O)O; NMeV = CN[C@H](C(=O)O)C(C)C; d(β3hA) = C[C@@H](N)CC(=O)O; Morpholide = C1CN(*)CCO1; NMeA = CN[C@@H](C)C(=O)O; Piperidide = C1CCN(*)CC1; Pyrrolidide = C1CCN(*)C1; Ac5c = NC1(C(=O)O)CCCC1; Aze = O=C(O)[C@@H]1CCN1; Aib = CC(C)(N)C(=O)O; Ethyl(2-OH) = OCC*; Sar = CNCC(=O)O

Target: protein-protein interaction between Kras and SOS1 (biotin-tagged human Kras loaded with GDP, His-tagged human SOS1) (Homo sapiens (Human), UniProt P01116, G12D)
Experiment: Protein-protein interaction inhibition between Kras and SOS1 (KrasG12D-SOS PPI) using AlphaScreen;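 note: kras produced in E. coli, Ni-coupled donor beads and streptavidin acceptor beads, excitation 680 nm with emission detected at 520–620 nm via singlet oxygen transfer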
Type: biochemical
Conditions: AlphaScreen; biotin-tagged human Kras loaded with GDP, His-tagged human SOS1; read-out: KRAS G12D-SOS PPI IC50

| SMILES | IC50 [nM] |
| --- | --- |
| CC[C@H](C)[C@@H]1NC(=O)[C@H](CC(C)C)N(C)C(=O)C[C@@H](C(=O)N2CCCCC2)N(C)C(=O)[C@H](C2CCCCC2)N(C)C(=O)C2(CCCC2)NC(=O)[C@@H]2C[C@@H](OCCO)CN2C(=O)[C@H](CCc2ccc(C(F)(F)F)c(Cl)c2)NC(=O)CN(C)C(=O)[C@H](CC2CCCCC2)N(C)C(=O)CN(C)C(=O)CN(C)C1=O [Compound 2122, (3S,9S,18S,21S,25S,28S,34S,36R)-3-[2-[3-chloro-4-(trifluoromethyl)phenyl]ethyl]-28-cyclohexyl-9-(cyclohexylmethyl)-36-(2-hydroxyethoxy)-21-isobutyl-7,10,13,16,22,26,29-heptamethyl-18-[(1S)-1-methylpropyl]-25-(piperidine-1-carbonyl)spiro[1,4,7,10,13,16,19,22,26,29,32-undecazabicyclo[32.3.0]heptatriacontane-31,1′-cyclopentane]-2,5,8,11,14,17,20,23,27,30,33-undecone] ([NMeL]I[Sar][Sar][NMeCha][Sar][hPhe(3-Cl-4-CF3)][Hyp](Ethyl(2-OH))[Ac5c][NMeChg][NMeD]-Piperidide; lactam N-11) | 0.46 |
| CC[C@H](C)[C@@H]1NC(=O)[C@H](CC(C)C)N(C)C(=O)C[C@@H](C(=O)N2CCCCC2)N(C)C(=O)[C@H](C(C)C)N(C)C(=O)C2(CCCC2)NC(=O)[C@@H]2CCCN2C(=O)[C@H](CCc2ccc(C(F)(F)F)c(Cl)c2)NC(=O)CN(C)C(=O)[C@H](C(C)C)N(C)C(=O)[C@@H]2CCN2C(=O)[C@H](C)N(C)C1=O [Compound 1737] ([NMeL]I[NMeA][Aze][NMeV][Sar][hPhe(3-Cl-4-CF3)]P[Ac5c][NMeV][NMeD]-Piperidide; lactam N-11) | 8.3 |
| CC[C@H](C)[C@@H]1NC(=O)[C@H](C)N(C)C(=O)C[C@@H](C)NC(=O)[C@H](CC(C)C)N(C)C(=O)C(C)(C)NC(=O)[C@H](CC(C)C)N(C)C(=O)[C@H](CCc2ccc(Cl)cc2)NC(=O)CN(C)C(=O)[C@H](Cc2ccc(Cl)cc2)N(C)C(=O)CN(C)C(=O)CN(C)C1=O [Compound 19] (cyclo([Aib][NMeL][d(β3hA)][NMeA]I[Sar][Sar][NMePhe(4-Cl)][Sar][hPhe(4-Cl)][NMeL])) | 50 |
| CC[C@H](C)[C@@H]1NC(=O)[C@H](CC(C)C)N(C)C(=O)C[C@@H](C)N(C)C(=O)[C@H]([C@@H](C)CC)N(C)C(=O)C2(CCCC2)NC(=O)[C@@H]2CCCN2C(=O)[C@H](CCc2ccc(C(F)(F)F)c(Cl)c2)NC(=O)CN(C)C(=O)[C@H](Cc2ccc(C(F)(F)F)cc2)N(CC)C(=O)[C@@H]2CCN2C(=O)[C@H](C)N(C)C1=O [Compound 898] (cyclo([Ac5c][NMeI][NMedβ3hAla][NMeL]I[NMeA][Aze][NEtPhe(4-CF3)][Sar][hPhe(3-Cl-4-CF3)]P)) | 12 |
| CC[C@H](C)[C@@H]1NC(=O)[C@H](CCC(C)C)N(C)C(=O)C[C@@H](C(=O)N2CCOCC2)N(C)C(=O)[C@H](C2CCCC2)N(C)C(=O)C2(CCCC2)NC(=O)[C@@H]2CCCN2C(=O)[C@H](CCc2ccc(C(F)(F)F)c(Cl)c2)NC(=O)CN(C)C(=O)[C@H](CC2CCCCC2)N(C)C(=O)[C@@H]2CCN2C(=O)[C@H](C)NC1=O [Compound 1171] ([NMehLeu]IA[Aze][NMeCha][Sar][hPhe(3-Cl-4-CF3)]P[Ac5c][NMeGly(cPent)][NMeD]-Morpholide; lactam N-11) | 0.99 |
| CC[C@H](C)[C@@H]1NC(=O)[C@H](CC(C)C)N(C)C(=O)C[C@@H](C(=O)N2CCCCC2)N(C)C(=O)[C@H](C2CCCCC2)N(C)C(=O)C2(CCCC2)NC(=O)[C@@H]2C[C@@H](c3ccccc3)CN2C(=O)[C@H](CCc2ccc(C(F)(F)F)c(Cl)c2)NC(=O)CN(C)C(=O)[C@H](CC2CCCCC2)N(C)C(=O)CN(C)C(=O)CN(C)C1=O [Compound 90] ([NMeL]I[Sar][Sar][NMeCha][Sar][hPhe(3-Cl-4-CF3)][Pro(trans-4-Ph)][Ac5c][NMeChg][NMeD]-Piperidide; lactam N-11) | 5 |
| CC[C@H](C)[C@@H]1NC(=O)[C@H](CC(C)C)N(C)C(=O)C[C@@H](C(=O)N2CCCCC2)N(C)C(=O)[C@H](C2CCCCC2)N(C)C(=O)C2(CCCC2)NC(=O)[C@@H]2C[C@H](O)CN2C(=O)[C@H](CCc2ccc(C(F)(F)F)c(Cl)c2)NC(=O)CN(C)C(=O)[C@H](CC2CCCCC2)N(C)C(=O)CN(C)C(=O)CN(C)C1=O [Compound 1374, (3S,9S,18S,21S,25S,28S,34S,36S)-3-[2-[3-chloro-4-(trifluoromethyl)phenyl]ethyl]-28-cyclohexyl-9-(cyclohexylmethyl)-36-hydroxy-21-isobutyl-7,10,13,16,22,26,29-heptamethyl-18-[(1S)-1-methylpropyl]-25-(piperidine-1-carbonyl)spiro[1,4,7,10,13,16,19,22,26,29,32-undecazabicyclo[32.3.0]heptatriacontane-31,1′-cyclopentane]-2,5,8,11,14,17,20,23,27,30,33-undecone] ([NMeL]I[Sar][Sar][NMeCha][Sar][hPhe(3-Cl-4-CF3)][cisHyp][Ac5c][NMeChg][NMeD]-Piperidide; lactam N-11) | 0.54 |
| CC[C@H](C)[C@@H]1NC(=O)[C@H](C)N(C)C(=O)C[C@@H](C(=O)N2CCCCC2)N(C)C(=O)[C@H](C(C)C)N(C)C(=O)C2(CCCC2)NC(=O)[C@@H]2CCCN2C(=O)[C@H](CCCc2ccccc2)NC(=O)CN(C)C(=O)[C@H](CC2CCCCC2)N(C)C(=O)[C@@H]2CCN2C(=O)[C@H](C)N(C)C1=O [Compound 659] ([NMeA]I[NMeA][Aze][NMeCha][Sar][hhPhe]P[Ac5c][NMeV][NMeD]-Piperidide; lactam N-11) | 130 |
| CC[C@H](C)[C@@H]1NC(=O)[C@H](CC(C)C)N(C)C(=O)C[C@@H](C(=O)N2CCCCC2)N(C)C(=O)[C@H](C2CCCC2)N(C)C(=O)C2(CCCC2)NC(=O)[C@@H]2CCCN2C(=O)[C@H](CCc2ccc(OC(F)(F)F)c(F)c2)NC(=O)CN(C)C(=O)[C@H](CC2CCCCC2)N(C)C(=O)[C@@H]2CCN2C(=O)[C@H](C)N(C)C1=O [Compound 2067] ([NMeL]I[NMeA][Aze][NMeCha][Sar][X21]P[Ac5c][NMeGly(cPent)][NMeD]-Piperidide; lactam N-11 (inferred); C-terminus assumed) | 0.84 |
| CC[C@H](C)[C@@H]1NC(=O)[C@H](CC(C)C)N(C)C(=O)C[C@@H](CC(C)C)NC(=O)[C@H]([C@@H](C)CC)N(C)C(=O)C2(CCCC2)NC(=O)[C@@H]2CCCN2C(=O)[C@H](CCc2ccc(C(F)(F)F)c(Cl)c2)NC(=O)CN(C)C(=O)[C@H](CC2CCCCC2)N(C)C(=O)[C@@H]2CCN2C(=O)[C@H](C)N(C)C1=O [Compound 798] (cyclo([Ac5c][NMeI][d(β3hL)][NMeL]I[NMeA][Aze][NMeCha][Sar][hPhe(3-Cl-4-CF3)]P)) | 59 |
| CC[C@H](C)[C@@H]1NC(=O)[C@H](CC(C)C)N(C)C(=O)C[C@@H](C)N(C)C(=O)[C@H](C(C)C)N(C)C(=O)C2(CCCC2)NC(=O)[C@@H]2CCCN2C(=O)[C@H](CCc2ccc(C(F)(F)F)c(Cl)c2)NC(=O)CN(C)C(=O)[C@H](CC2CCCC2)N(C)C(=O)CN(C)C(=O)CN(C)C1=O [Compound 88] (cyclo([Ac5c][NMeV][NMedβ3hAla][NMeL]I[Sar][Sar][NMeAla(cPent)][Sar][hPhe(3-Cl-4-CF3)]P)) | 18 |
| CC[C@H](C)[C@@H]1NC(=O)[C@H](CC(C)C)N(C)C(=O)C[C@@H](C(=O)N2CCCCC2)N(C)C(=O)[C@H](C2CCCC2)N(C)C(=O)C2(CCCC2)NC(=O)[C@@H](Cc2ccccc2)N(C)C(=O)[C@H](CCc2ccc(C(F)(F)F)c(Cl)c2)NC(=O)CN(C)C(=O)[C@H](CC2CCCCC2)N(C)C(=O)CN(C)C(=O)CN(C)C1=O [Compound 1446] ([NMeL]I[Sar][Sar][NMeCha][Sar][hPhe(3-Cl-4-CF3)][dNMeF][Ac5c][NMeGly(cPent)][NMeD]-Piperidide; lactam N-11) | 150 |
| CC[C@H](C)[C@@H]1NC(=O)[C@H](CC(C)C)N(C)C(=O)C[C@@H](C)N(C)C(=O)[C@H](C2CCCC2)N(C)C(=O)C2(CCCC2)NC(=O)[C@@H]2CCCN2C(=O)[C@H](CCc2ccc(C(F)(F)F)c(Cl)c2)NC(=O)CN(C)C(=O)[C@H](Cc2ccc(C)cc2)N(CC)C(=O)[C@@H]2CCN2C(=O)[C@H](C)N(C)C1=O [Compound 494] (cyclo([Ac5c][NMeGly(cPent)][NMedβ3hAla][NMeL]I[NMeA][Aze][NEtPhe(4-Me)][Sar][hPhe(3-Cl-4-CF3)]P)) | 8.6 |
| CC[C@H](C)[C@@H]1NC(=O)[C@H](CC(C)C)N(C)C(=O)C[C@@H](C(=O)N2CCCCC2)N(C)C(=O)[C@H](C2CCCCC2)N(C)C(=O)C2(CCCC2)NC(=O)CN(CC2COC2)C(=O)[C@H](CCc2ccc(C(F)(F)F)c(Cl)c2)NC(=O)CN(C)C(=O)[C@H](CC2CCCCC2)N(C)C(=O)CN(C)C(=O)CN(C)C1=O [Compound 2031] ([NMeL]I[Sar][Sar][NMeCha][Sar][hPhe(3-Cl-4-CF3)][X12][Ac5c][NMeChg][NMeD]-Piperidide; lactam N-11 (inferred); C-terminus assumed) | 0.82 |
| CC[C@H](C)[C@@H]1NC(=O)[C@H](CC(C)C)N(C)C(=O)C[C@@H](C(=O)N2CCCC2)NC(=O)[C@H]([C@@H](C)CC)N(C)C(=O)C2(CCCC2)NC(=O)[C@@H]2CCCN2C(=O)[C@H](CCc2ccc(C(F)(F)F)c(Cl)c2)NC(=O)CN(C)C(=O)[C@H](CC2CCCCC2)N(C)C(=O)[C@@H]2CCN2C(=O)[C@H](C)N(C)C1=O [Compound 453] ([NMeL]I[NMeA][Aze][NMeCha][Sar][hPhe(3-Cl-4-CF3)]P[Ac5c][NMeI]D-Pyrrolidide; lactam N-11) | 17 |
| CC[C@H](C)[C@@H]1NC(=O)[C@H](CC(C)C)N(C)C(=O)C[C@@H](C(=O)N2CCCCC2)N(C)C(=O)[C@H](C(C)C)N(C)C(=O)C2(CCCC2)NC(=O)[C@@H]2CCCN2C(=O)[C@H](CCc2ccc(C(F)(F)F)c(Cl)c2)NC(=O)CN(C)C(=O)[C@H](CC2CCCCC2)N(C)C(=O)[C@@H]2CCN2C(=O)[C@H](C)N(C)C1=O [Compound 476] ([NMeL]I[NMeA][Aze][NMeCha][Sar][hPhe(3-Cl-4-CF3)]P[Ac5c][NMeV][NMeD]-Piperidide; lactam N-11) | 4.1 |
